# Literature values, collected in patent US20050282838A1, “Compounds, compositions, and methods” (priority 2003, published 2005).
# Tested on: A549 cells
# Conditions: data provided by National Cancer Institute
row,Compound,GI50
1,NC(=O)NO [hydroxyurea],500000 nM
2,O=c1[nH]cc(F)c(=O)[nH]1 [5-fluorouracil],1000 nM
3,CC(=O)O[C@H]1C(=O)[C@@]2(C)[C@H]([C@H](OC(=O)c3ccccc3)[C@]3(O)C[C@H](OC(=O)[C@H](O)[C@@H](NC(=O)c4ccccc4)c4ccccc4)C(C)=C1C3(C)C)[C@]1(OC(C)=O)CO[C@@H]1C[C@@H]2O [paclitaxel],4 nM
4,COc1cccc2c1C(=O)c1c(O)c3c(c(O)c1C2=O)C[C@@](O)(C(=O)CO)C[C@@H]3O[C@H]1C[C@H](N)[C@H](O)[C@H](C)O1 [doxorubicin],63 nM
